Laboratory results from PMC4413647, “Simultaneous targeting of androgen receptor (AR) and MAPK-interacting kinases (MNKs) by novel retinamides inhibits growth of human prostate cancer cell lines” (Oncotarget, 2014).
Read-outs that look alike come from different tables or passages of the source.

Experiments:
[1] = test system: LNCaP cells; assay: MTT cell proliferation assay, 7 d, LNCaP; format: cell-based, human; settings: Homo sapiens, LNCaP, 168 h, 7 d treatment
From the text: (§1) Androgen-dependent (LNCaP), androgen-independent (PC-3) and castration resistant (C4-2B and 22Rv1) human prostate carcinoma cells were procured from American Type Culture Collection, Manassas, VA, USA and maintained in RPMI 1640 media (Gibco-Life Technologies, Grand Island, NY, USA) supplemented with 10% fetal bovine serum and 1% penicillin/streptomycin. […] Immortalized untransformed prostate epithelial cells, PWR1E from American Type Culture Collection were maintained in serum-free Keratinocyte media (Gibco) supplemented with epidermal growth factor and bovine pituitary extract. All cell lines were maintained in a 37 °C/5% CO2 humidified atmosphere.
(§2) Cell proliferation assay was performed as described previously. For cell growth experiment, cells were treated with the NRs for 7 days. MTT assay was performed at the end of the experiment. Calculations of combination indices were done using the Calcusyn program (Biosoft, Cambridge, United Kingdom). For colony formation assay, cells were plated 1000 per well in complete media and allowed to adhere for 24 h. The next day cells were treated with indicated compounds (5 μM). After 24 h compound containing media were removed, and cells were allowed to form colonies in complete media. Approximately 2 weeks later the colonies were fixed, stained with 0.5% crystal violet (sigma) for 30 min and counted manually. Results represent the mean ± standard deviation of three independent experiments.

[2] = test system: C4-2B cells; assay: MTT cell proliferation assay, 7 d, C4-2B; format: cell-based; settings: Homo sapiens, 168 h, 7 d treatment
From the text: as §1, §2

[3] = test system: PCa cells; assay: MTT cell viability in PCa cells (LNCaP, PC-3, C4-2B, 22Rv1); format: cell-based, human; settings: for growth inhibitory effect or differential sensitivity: PCa cells vs untransformed cells; for GI50: Homo sapiens, range over PCa cell lines
Description: as §2

[4] = test system: 22Rv1 cells; assay: MTT cell proliferation assay, 7 d, 22Rv1; format: cell-based; settings: Homo sapiens, 22Rv1, 168 h, 7 d treatment
From the text: as §1, §2

[5] = test system: PC-3 cells; assay: MTT cell proliferation assay, 7 d, PC-3; format: cell-based; settings: Homo sapiens, PC-3, 168 h, 7 d treatment
From the text: as §1, §2

[6] = test system: PWR-1E cells; assay: MTT cell proliferation assay, 7 d, PWR-1E; format: cell-based; settings: Homo sapiens, 168 h, immortalized untransformed prostate cells, 7 d treatment
From the text: as §1, §2

[7] = test system: Bax, cleaved PARP-1; assay: Western blot of Bax and cleaved PARP-1 in PCa cells; format: cell-based, human; settings: 20 μM, 24 h, among the lead NRs
Description: Figure 4 Effect of NRs on cell cycle and apoptosis (A) LNCaP cells treated with 5 μM of NRs and other compounds for 24 h were stained with PI and analysed with a FACS calibur flow cytometer. (B) Total cell lysates from PCa cells treated with 20 μM of NRs were separated by SDS-PAGE and probed with cyclin D1 and B antibodies. […] (C) LNCaP cells were treated with indicated compounds (5 μmol/L) for 24 h and apoptosis induction was examined by oligonucleosomal fragmentation. Data are shown relative to vehicle treated control and the bars are means of three replicate determinations plus standard deviations. *, P< 0.01; ♣, P<0.05 compared with vehicle treated control. (D) PCa cells as indicated were seeded in 24 well plate, and treated with 5 μmol/L of NRs the subsequent day. After 24 h the plates were analyzed for apoptotic and viable cells using acridine orange/ethidium bromide staining. (E) Western blot analysis of apoptosis associated Bax and cPARP in PCa cells treated with NRs (20 μmol/L) for 24 h. (F) Apoptosis induction in LNCaP cells treated with 5 μmol/L of VNLG-147 and -152 in the presence or absence of ZVAD (5 μmol/L) was assessed by oligonucleosomal fragmentation after 24 h incubation. *, P< 0.05 compared with vehicle treated control. […]

[8] = test system: PC-3 cells; assay: Wound healing migration assay; format: cell-based, human; settings: 5 μM, 24 h
Description: Figure 5 Anti-migratory and anti-invasive potential of NRs (A) Effect of NRs treatment (5 μmol/L) on PC-3 cell migration was assessed by wound healing assay after 24 h of wound formation. Representative photomicrographs of initial and final wounds are shown at 100x magnification. (B) Effect of NRs on PC-3 cell invasion was evaluated by transwell migration assay. PC-3 cells were seeded on matrigel coated boyden chamber and treated with NRs (5 μmol/L, 24 h). Photographs represent the extent of cell invasion in each of the treated cells. (C) Western blot analysis of the effect of NRs on the expression of cadherins in PC-3 cells. Cells were treated with indicated compound 20 μmol/L for 24 h. […] For wound healing assay highly metastatic PC-3 cells were plated in a 24 well plate at a seeding density of 5 × 10^5 cells/ well and allowed to form a confluent monolayer for 24 h. Cells were made dormant by pretreating with 0.5 μmol/L mitomycin C for 2 h to ensure that wounds are filled due to cell migration and not by cell proliferation. Subsequently, the monolayer was scratched with a pipette tip, washed with media to remove floating cells, and photographed (time 0 h). Cells were then treated with indicated compounds (5 μM) and the experiment was terminated as soon as wound was completely filled in vehicle treated controls. Cells were then photographed again using Nikon TE2000 microscope at three randomly selected sites per well [43].

[9] = test system: PC-3 cells; assay: Boyden chamber matrigel invasion assay; format: cell-based, human; settings: PC-3, 5 μM, 24 h
Description: Figure 5 Anti-migratory and anti-invasive potential of NRs (A) Effect of NRs treatment (5 μmol/L) on PC-3 cell migration was assessed by wound healing assay after 24 h of wound formation. Representative photomicrographs of initial and final wounds are shown at 100x magnification. (B) Effect of NRs on PC-3 cell invasion was evaluated by transwell migration assay. PC-3 cells were seeded on matrigel coated boyden chamber and treated with NRs (5 μmol/L, 24 h). Photographs represent the extent of cell invasion in each of the treated cells. (C) Western blot analysis of the effect of NRs on the expression of cadherins in PC-3 cells. Cells were treated with indicated compound 20 μmol/L for 24 h.
The invasion assay in PC-3 cells was performed using Matrigel (BD Biosciences, Bedford, MA, USA)-coated transwell cell culture chambers (8 μm pore size, EMD Millipore, Temecula, CA, USA) as described previously (43). Briefly, PC-3 cells (5 × 10^4 cells/well) were cultured in the upper chamber of the transwell insert for 24 h in serum-free RPMI-1640 medium. The cells were then treated with 5 μM of indicated compounds for 24 h. RPMI-1640 medium containing 10% FBS was placed in the lower chamber. At the end of incubation, the top surface of the non-migrated cells were scraped gently with cotton swabs and the cells on the lower surface of the membrane (migrated cells) were fixed for 15 min with cold methanol and stained with crystal violet. Cells that had migrated to the bottom of the membrane were visualized and counted using an inverted microscope. For each replicate (n = 3), cells in three randomly selected fields were counted and averaged.

[10] = test system: MR49F cells; assay: MTT growth inhibition in Enzalutamide resistant MR49F cells; format: cell-based, human; settings: for GI50: Homo sapiens, MR49F
Description: Figure 2 Effect of NRs on PCa cell growth and colony formation (A) Representative photographs of colonies formed in PCa cells at 14th day after initial treatment with specified compounds (5 μmol/L). Colonies were fixed with methanol and stained with crystal violet. (B) Data represents the mean ± S.E from three independent experiments. *, P< 0.05; ♣, P<0.01 compared to vehicle treated control. […] NRs that had promising inhibitory effect on cell proliferation on LNCaP cells were tested for their growth inhibitory effect in MR49F cells in comparison with Casodex and Abiraterone acetate by MTT assay.
as §1, §2

[11] = DHT induced, read-out: GI50 LNCaP, DHT induced
[12] = read-out: GI50 MR49F (Figure 2C)

Row | GI50 ([1]; read-out: GI50 LNCaP) [µM] | GI50 [1, 11] [µM] | GI50 [4] [µM] | GI50 [5] [µM] | GI50 [3] [µM] | Compound | GI50 [2] [µM] | growth inhibitory effect or differential sensitivity [3] | GI50 [6] [µM] | efficacy in inducing PARP cleavage and/or increasing Bax expression [7] | PC-3 cell migration to the denuded zone [8] | percentage of cell invasion compared to control [9] | GI50 [10, 12] [µM] | GI50 ([10]; read-out: GI50 MR49F) [µM] | effect on growth of MR49F cells ([10]; up to a concentration of 100 μmol/L)
1 | 57.5 | 52.5 | 39.8 | 57.5 |  | CC1=C(/C=C/C(C)=C/C=C/C(C)=C/C(=O)Nc2cc(C(F)(F)F)ccc2C(F)(F)F)C(C)(C)CCC1n1ccnc1 (centres unmarked) [VNLG-146] | 11.7 | did not display any notable growth inhibitory effect or differential sensitivity | 63.1 |  |  |  |  |  | 
2 | 47.9 | 39.8 | 25.1 | 36.3 |  | CC1=C(/C=C/C(C)=C/C=C/C(C)=C/C(=O)O)C(C)(C)CCC1 [ATRA, all-trans-retinoic acid, reference compound] | 11.7 |  | 75.3 |  |  |  |  |  | 
3 | 1.86 | 1.41 | 2.04 | 2.95 | 1.5 to 5.5 | CC1=C(/C=C/C(C)=C/C=C/C(C)=C/C(=O)Nc2ccccc2O)C(C)(C)CCC1n1ccnc1 (centres unmarked) [VNLG-147] | 2.66 |  | 71.5 | greater efficacies | potentially suppressed | 33 | 4.26 |  | 
4 | 11.3 | 12.9 | 12.9 | 36.3 |  | CC1=C(/C=C/C(C)=C/C=C/C(C)=C/C(=O)O)C(C)(C)CCC1n1ccnc1 (centres unmarked) [VN/14-1] | 9.76 |  | 69.2 |  |  |  |  |  | 
5 | 2.45 | 2.69 | 2.97 | 7.62 |  | CC(=O)O[C@H]1CC[C@@]2(C)C(=CC[C@@H]3[C@@H]2CC[C@]2(C)C(c4cccnc4)=CC[C@@H]32)C1 [AA, Abiraterone acetate, reference compound] | 1.47 |  | 20.2 |  |  |  |  | 27.5 | 
6 | 4.67 | 1.54 | 2.95 | 10.7 |  | CC1=C(/C=C/C(C)=C/C=C/C(C)=C/C(=O)Nc2ccc(O)cc2)C(C)(C)CCC1n1ccnc1 (centres unmarked) [VN/66-1] | 2.38 |  | 19.1 |  |  |  | 6.76 |  | 
7 | 22.9 | 19.1 | 39.8 | 36.3 |  | CC1=C(/C=C/C(C)=C/C=C/C(C)=C/C(=O)Nc2ncnc3[nH]cnc23)C(C)(C)CCC1n1ccnc1 (centres unmarked) [VNLG-148] | 15.5 | did not display any notable growth inhibitory effect or differential sensitivity | 43.6 |  |  |  |  |  | 
8 | 2.69 | 2.45 | 3.23 | 3.54 |  | CC1=C(/C=C/C(C)=C/C=C/C(C)=C/C(=O)Nc2ccc(O)cc2)C(C)(C)CCC1 [Compound 4-HPR, 4-hydroxyphenyl retinamide, reference compound] | 3.11 |  | 1.07 |  |  |  |  |  | 
9 | 3.23 | 2.69 | 2.23 | 4.36 | 1.5 to 5.5 | CC1=C(/C=C/C(C)=C/C=C/C(C)=C/C(=O)Nc2ccccc2)C(C)(C)CCC1n1ccnc1 (centres unmarked) [VNLG-153] | 2.97 |  | 39.8 |  | potentially suppressed | 35 | 7.41 |  | 
10 | 2.61 | 2.95 | 3.81 | 9.15 |  | CC(O)(CS(=O)(=O)c1ccc(F)cc1)C(=O)Nc1ccc(C#N)c(C(F)(F)F)c1 (centres unmarked) [Casodex, reference compound] | 1.51 |  | 69.1 |  |  |  |  | 43.6 | 
11 | 2.45 | 2.23 | 2.23 | 4.26 | 1.5 to 5.5 | CC1=C(/C=C/C(C)=C/C=C/C(C)=C/C(=O)NC(C)(C)C)C(C)(C)CCC1n1ccnc1 (centres unmarked) [VNLG-145] | 2.14 |  | 25.1 |  |  |  | 3.89 |  | 
12 |  |  |  |  |  | CNC(=O)c1ccc(N2C(=S)N(c3ccc(C#N)c(C(F)(F)F)c3)C(=O)C2(C)C)cc1F [MDV3100, Enzalutamide, reference compound] | 1.54 |  | 17 |  |  |  | > 100 |  | no significant effect
